Earlier results as cited in US20100192311A1, “METHOD FOR PERFUMING FABRICS” (priority 2009, published 2010).
Counter-ions that a name gives are not always drawn.

system: typical Gram negative and positive bacteria, fungi and yeasts; conditions: level from about 0.001% to about 0.5% by weight of the usage composition

| SMILES | effective against typical Gram negative and positive bacteria, fungi and yeasts |
| --- | --- |
| Cn1sc2c(c1=O)CCC2 [Promexal, 2-methyl-4,5-trimethylene-4-isothiazolin-3-one] | effective |
| O=c1[nH]sc2ccccc12 [Proxel, 1,2-benzisothiazolin-3-one] | effective |

system: not given; conditions: in water

| SMILES | water solubility |
| --- | --- |
| O=[N+]([O-])C1(Br)COCOC1 [Bronidox L, 5-bromo-5-nitro-1,3-dioxane] | about 0.46% |
| CC(C)(O)C(Cl)(Cl)Cl [chlorobutanol, 1,1,1-Trichloro-2-methylpropan-2-ol] | about 0.8% |
| [Na+].[O-][n+]1ccccc1[S-] [sodium pyrithione] | about 50% |

Other lines, results leading:

| water solubility | SMILES |
| --- | --- |
| about 2.67% | OCCOc1ccccc1 [2-phenoxyethanol] |
| more than 50% | CC1(C)C(=O)N(CO)C(=O)N1CO [DMDM hydantoin, 1,3-bis(hydroxymethyl)-5,5-dimethyl-2,4-imidazolidinedione] |
| about 2% | OCCc1ccccc1 [Phenyl Ethyl Alcohol, 2-phenylethanol] |
| about 4% | OCc1ccccc1 [benzyl alcohol] |
| about 1.8% | [H]/N=C(\N/C(=N/[H])NCCCCCCNC(=N)NC(=N)Nc1ccc(Cl)cc1)Nc1ccc(Cl)cc1 [chlorhexidine diacetate salt, 1,1′-hexamethylene bis(5-(p-chlorophenyl)biguanide), reference compound] |
| about 70% | [H]/N=C(\N/C(=N/[H])NCCCCCCNC(=N)NC(=N)Nc1ccc(Cl)cc1)Nc1ccc(Cl)cc1 [chlorhexidine digluconate salt, 1,1′-hexamethylene bis(5-(p-chlorophenyl)biguanide), reference compound] |
